Where no end group is shown, it is not given here.
Legend:
[1] = system: cholecystokinin (CCK8) (26–33), non-sulfated enzyme immunoassay kit; settings: reported for the kit; ref EK-069-04, Phoenix Peptide; cited from earlier work
Description: (§1) A cholecystokinin (CCK8) (26–33), non-sulfated enzyme immunoassay kit (EK-069-04, Phoenix Peptide, Germany), with 100% reported cross-reactivity with sulfated and non-sulfated CCK8 as well as CCK33 and gastrin, was used for assay validation. The pooled human plasma potassium EDTA anticoagulant (K2EDTA, BioIVT, West Sussex, U.K.) from healthy controls was used as a matrix for the preparation of calibration standards during the clinical sample analysis.

CCK1 receptor (CCK1R) = settings: statement of the introduction; cited from earlier work
Description: Post-translational processing of preproCCK (ppCCK), including tyrosine-sulfation in the trans-Golgi network and subsequent proteolytic cleavage by prohormone convertases and carboxypeptidase E combined with C-terminal amidation by peptidylglycine α-amidating monooxygenase[5],[6] produces a number of different bioactive CCK peptides (Figure 1). For activation of the CCK1 receptor (CCK1R), which largely mediates the peripheral outcomes described above, sulfation of the CCK peptide is critical, and the bioactive products of ppCCK, named after the number of amino acids retained in the final produc ...

[2] = system: human duodenal organoid cultures; test: Human duodenal organoid secretion assay: CCK8 and ppCCK(21–44) in supernatants and lysates by LC-MS/MS; format: cell-based; settings: 10 μM forskolin + 1 mM glucose vs 1 mM glucose alone, 1 h, 2D human intestinal organoids; similar for both peptides; n = 12 from six experiments in duplicate
Protocol: Human duodenal organoid cultures were established for secretion assays using our established protocol.[16] To improve peptide yield, the cultures were grown in a 6-well plate format, and 400 μL of secretion buffer (0.001% fatty acid-free BSA and 1 mM glucose in saline buffer[16]) was used in the experiments.
Method development, validation, and calibration/quantitation samples were prepared by spiking working solutions of CCK8, CCK33, and ppCCK(21–44) in organoid secretion buffer. For initial CCK detection, lysed organoid cultures were prepared using 6 M guanidine hydrochloride (aq) and snap-frozen prior to extraction.
Based on the experimental design results, the extraction of CCK peptides from organoid lysate and secretion samples was adjusted from previous methods,[16],[17] as per the following steps. […]
To assess CCK secretion, we cultured human intestinal organoids in 2D cultures[16] and collected supernatants and cell lysates after 1 h incubation in either 1 mM glucose or 1 mM glucose and 10 μM forskolin, a known strong stimulus for secretion of a number of gut hormones, including CCK.[17],[18] We were unable to reliably detect sulfated CCK8 in supernatants; however, desulfated CCK8 and ppCCK(21–44) were detected under both culture conditions. […]

[3] = system: cholecystokinin (CCK8) (26–33), non-sulfated enzyme immunoassay kit; test: Commercial CCK8 enzyme immunoassay (EK-069-04, Phoenix Peptide): detection and cross-reactivity; format: binding; settings: 50 to 750 pg/mL spiked in secretion buffer, SPE eluate dried and reconstituted in EIA buffer
Description: as §1
We compared the performance of the LC-MS/MS method with a commercially available EIA (EK-069-04, Phoenix Peptide). CCK8 solutions were spiked at different concentrations either alone or in the presence of ppCCK(21–44) into secretion buffer, duplicate samples were extracted as described, and prior to EIA analysis, the SPE eluates were dried under nitrogen and reconstituted in EIA buffer. The concentrations were deduced alongside either extracted calibration curves for LC-MS/MS analysis or non-extracted standard curves as supplied in the EIA kit.

CCK33: 33 amino acid bioactive CCK isoform (KAPSGRMSIVKNLQNLDPSHRISDRDYMGWMDF-NH2; ends and bridges not checked; UniProt P06307 71-103, looked up)
cross-reactivity of the EIA kit [1]: 100%

gastrin: closely related peptide hormone sharing the bioactive C-terminus with CCK8
cross-reactivity of the EIA kit [1]: 100% | activity at CCK1R (CCK1 receptor (CCK1R)): no activity

non-sulfated CCK8: CCK8 without tyrosine sulfate, cross-reactant of the EIA kit
cross-reactivity of the EIA kit [1]: 100%

C=C[C@@]1(C)CC(=O)[C@]2(O)[C@@]3(C)[C@@H](O)CCC(C)(C)[C@@H]3[C@H](O)[C@H](OC(C)=O)[C@@]2(C)O1 [forskolin]
fold stimulation of CCK8 and ppCCK(21–44) secretion [2]: ~2.3 fold

[Pyr]-QPVPPADPAGSGLQRAEEAPRRQL-acid [ppCCK(21–44), N-terminal peptide fragment of proCCK, surrogate analyte for CCK secretion]
detection by EIA [3]: did not detect

Reference: article PMC10476265, “Optimized LC-MS/MS Method for the Detection of ppCCK(21–44): A Surrogate to Monitor Human Cholecystokinin Secretion” (Journal of Proteome Research, 2023)
